Reference: patent US20250313535A1, “ALPHA 4 BETA 7 INTEGRIN MODULATORS AND USES THEREOF” (DICE MOLECULES SV, INC., priority 2022, published 2025)
Read-outs that look alike come from different tables or passages of the source.

Tests used:
[1] = molecular target: α4β7 integrin (Homo sapiens (Human), UniProt P13612+P26010); assay: Integrin Adhesion Assay: Protocol 4 (MAdCAM-coated plate, RPMI-8866 cells with stable LOF mutation of the ITGB1 gene); type: cell-based
Procedure: (§1) Integrin Adhesion Assay Using Genetically Modified Cells Generating Stable Cell Lines with ITGB1 or ITGB7 Knockout (Protocol 4 and Protocol 5)
(§2) To obtain subclones of the RPMI-8866 cell line (Sigma-Aldrich, St. Louis, MO) that were individually deficient in either integrin β1 or integrin β 7, CRISPR/Cas9 technology was employed (PMID: 30108345). Specifically, a Neon™ Transfection System System 10 μL Kit and the Neon™ Transfection device (both from ThermoFisher Scientific) were used.
(§3) The protocol was performed following the manufacturer instructions, described in https://www.thermofisher.com/document-connect/document-connect.html?url=https % 3A%2F%2F assets.thermofisher.com%2FTFS-Assets%2FLSG%2Fmanuals%2FMAN0017066_TrueCut Cas9_Protein_v2_UG.pdf, which is incorporated by reference herein in its entirety.
(§4) RPMI-8866 cells were transferred to a flask the day before transfection, at a confluence of 5×10^5 cells/mL. The cells were washed with PBS and resuspended in buffer R (Neon™ Transfection System, Invitrogen) to 2×10^5 cells/10 uL for each reaction. The TrueCut™ HiFi Cas9 Protein (1250 ng per reaction) was mixed with TrueGuide™ sgRNA (7.5 pmoles each/pool of 3 sequences, table 1) (ThermoFisher Scientific). This mix was combined with the RPMI-8866 cells and electroporated on the Neon system at 1700V/20 ms/1 pulse. Transfected cells were allowed to recover in 500 μL pre-warmed cRMPI media (RPMI-1640 media with 10% FBS, 100 U/ml Penicillin-Streptomycin) at 37° C., 5% CO2 for 24 hours. At that time, an extra 500 μL of pre-warmed cRMPI media was added, and cells were incubated for another 24 hours.
(§5) For flow cytometry analysis, 100 μL of the transfected cells were collected and stained with anti-itga4 (Clone: 9F10, PE, BD Pharmingen™), anti-itgb 1 (Clone: (TS2/16), Super Bright 436, eBioscience), anti-itgb7 (Clone: FIB504, Brilliant Violet 650, BD Pharmingen™) and viability dye (LIVE/DEAD™ Fixable Green Dead Cell Stain, Invitrogen™). An Attune NxT Flow Cytometer was used to analyze the CRISPR-transfected cells. The flow cytometry results were analyzed using FlowJo™ v10.8.1 Software (BD Life Sciences). Fluorescence minus one (FMO) controls were used to select appropriate gates for data analysis.
(§6) To generate an individual clones of cells deficient in either ITGB7 or ITGB1 by limiting dilution assay, the transfected cells were resuspended at 5 cells/mL and seeded in 384 well plates. Outgrowth of clones was monitored using a microscope, and 24 clones were transferred for expansion. Expression of either integrin was verified by flow cytometry in each of the clones. One clone of each integrin b7 or the integrin b1 knockout was chosen, expanded and aliquots were frozen in vapor phase liquid nitrogen.
Integrin Adhesion Assay: Protocol 4
(§7) MAdCAM (R&D Systems, 0.1 ug) was diluted in 50 μL PBS, added to each well of an opaque ELISA plate (Thermo), and incubated overnight at 4° C. Coated plates were washed once with PBS and then blocked with 200 μL of assay buffer (10 mM HEPES, 150 mM NaCl, 1 mM MnCl2, 0.1 mM CaCl2), 1% BSA) for 1 hour at 37° C. and 5% CO2. After incubation, buffer was aspirated from the plates and 50 μL of fresh assay buffer was added. Compounds were added using a compounds dispenser (Tecan), and DMSO concentration was normalized to 1% across each plate. 50 μL of RPMI-8866 cells with a stable loss of function (LOF) mutation of the ITGB1 gene (2×10^6 per mL) were added to each well and the plates were incubated for 1 hour at 37° C. at a CO2 concentration of 5%. After incubation, plates were allowed to cool to RT for 10 minutes before being washed four times in assay buffer by an automated plate washer (BioTek). After washing, 100 μL of a 1:1 mixture of assay buffer and CellTiter GLO 2.0 reagent (Promega) were added to each well. Plates were mixed for 2 minutes at 1000 rpm and then allowed to incubate an additional 10 minutes before reading out luminescence on a Tecan Spark plate reader. […]

[2] = molecular target: α4β1 integrin (Homo sapiens (Human), UniProt P05556+P13612); assay: Integrin Adhesion Assay: Protocol 5 (VCAM-coated plate, RPMI-8866 cells with stable LOF mutation of the ITGB7 gene); type: cell-based
α4β1 integrin, sequence (P13612 34-1032): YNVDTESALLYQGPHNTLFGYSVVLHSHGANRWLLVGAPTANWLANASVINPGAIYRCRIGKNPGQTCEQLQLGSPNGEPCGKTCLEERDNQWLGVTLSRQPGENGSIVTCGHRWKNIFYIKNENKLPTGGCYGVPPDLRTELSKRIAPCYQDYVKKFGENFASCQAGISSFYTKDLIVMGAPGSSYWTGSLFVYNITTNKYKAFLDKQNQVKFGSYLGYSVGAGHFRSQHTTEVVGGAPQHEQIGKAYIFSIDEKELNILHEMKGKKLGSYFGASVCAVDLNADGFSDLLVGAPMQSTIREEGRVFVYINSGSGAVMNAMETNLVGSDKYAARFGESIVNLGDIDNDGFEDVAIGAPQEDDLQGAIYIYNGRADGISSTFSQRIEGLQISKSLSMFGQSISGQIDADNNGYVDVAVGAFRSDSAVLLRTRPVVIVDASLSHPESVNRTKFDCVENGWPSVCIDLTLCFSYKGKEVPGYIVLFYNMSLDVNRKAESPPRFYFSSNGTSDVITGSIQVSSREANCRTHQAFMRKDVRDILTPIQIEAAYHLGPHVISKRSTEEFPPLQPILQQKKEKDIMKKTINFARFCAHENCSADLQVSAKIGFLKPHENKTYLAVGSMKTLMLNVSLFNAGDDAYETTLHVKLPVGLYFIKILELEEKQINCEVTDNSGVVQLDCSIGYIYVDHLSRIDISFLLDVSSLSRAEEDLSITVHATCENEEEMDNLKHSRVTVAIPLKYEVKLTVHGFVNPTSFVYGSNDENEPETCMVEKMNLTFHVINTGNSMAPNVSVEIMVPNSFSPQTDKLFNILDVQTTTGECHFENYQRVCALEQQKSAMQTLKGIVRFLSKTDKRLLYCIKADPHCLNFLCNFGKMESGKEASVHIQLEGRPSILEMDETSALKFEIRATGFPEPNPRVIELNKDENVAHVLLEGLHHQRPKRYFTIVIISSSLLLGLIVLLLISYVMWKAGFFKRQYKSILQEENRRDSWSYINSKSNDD
α4β1 integrin, sequence (P05556 21-798): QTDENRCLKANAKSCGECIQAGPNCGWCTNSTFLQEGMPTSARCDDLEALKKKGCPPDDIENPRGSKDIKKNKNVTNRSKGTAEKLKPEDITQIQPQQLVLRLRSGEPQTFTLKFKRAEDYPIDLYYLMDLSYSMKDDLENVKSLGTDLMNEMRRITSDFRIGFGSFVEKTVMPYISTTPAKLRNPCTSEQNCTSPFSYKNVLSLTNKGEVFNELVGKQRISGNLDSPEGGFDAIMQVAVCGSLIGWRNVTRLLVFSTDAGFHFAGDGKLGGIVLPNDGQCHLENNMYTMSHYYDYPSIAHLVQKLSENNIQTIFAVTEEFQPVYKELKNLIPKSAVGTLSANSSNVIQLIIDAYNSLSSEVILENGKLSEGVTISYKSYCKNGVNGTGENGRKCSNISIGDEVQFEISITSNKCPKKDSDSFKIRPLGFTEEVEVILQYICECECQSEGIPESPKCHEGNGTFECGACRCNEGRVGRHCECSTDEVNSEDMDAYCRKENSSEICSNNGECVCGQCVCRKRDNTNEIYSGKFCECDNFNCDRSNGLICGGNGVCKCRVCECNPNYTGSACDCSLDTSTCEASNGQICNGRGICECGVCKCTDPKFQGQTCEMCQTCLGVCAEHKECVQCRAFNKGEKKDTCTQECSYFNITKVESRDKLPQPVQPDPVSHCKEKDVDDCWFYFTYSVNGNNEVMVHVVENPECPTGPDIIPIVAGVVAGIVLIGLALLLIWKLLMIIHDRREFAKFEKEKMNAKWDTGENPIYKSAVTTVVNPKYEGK
Procedure: as §1, §2, §3, §4, §5, §6
Integrin Adhesion Assay: Protocol 5
as §7, with “VCAM” for “MAdCAM”, “by” for “using a”, “(Tecan)” for “(Tecan),”, “LOF” for “loss of function (LOF)”, “ITGB7” for “ITGB1”, “and 5% CO2.” for “at a CO2 concentration of 5%.”

[3] = RPMI-8866 cells with stable LOF mutation of the ITGB1 gene, read-out: Mean IC50 α4β7 KO^a
[4] = RPMI-8866 cells with stable LOF mutation of the ITGB7 gene, read-out: Mean IC50 α4β1 KO^b
[5] = Protocol 4, RPMI-8866 cells with LOF mutation of ITGB1, MAdCAM, read-out: Mean IC50 α4β7 KO
[6] = Protocol 5, RPMI-8866 cells with LOF mutation of ITGB7, VCAM, read-out: Mean IC50 α4β1 KO

α4β7 integrin, sequence (P13612 34-1032): as the sequence (P13612 34-1032) above
α4β7 integrin, sequence (P26010 20-798): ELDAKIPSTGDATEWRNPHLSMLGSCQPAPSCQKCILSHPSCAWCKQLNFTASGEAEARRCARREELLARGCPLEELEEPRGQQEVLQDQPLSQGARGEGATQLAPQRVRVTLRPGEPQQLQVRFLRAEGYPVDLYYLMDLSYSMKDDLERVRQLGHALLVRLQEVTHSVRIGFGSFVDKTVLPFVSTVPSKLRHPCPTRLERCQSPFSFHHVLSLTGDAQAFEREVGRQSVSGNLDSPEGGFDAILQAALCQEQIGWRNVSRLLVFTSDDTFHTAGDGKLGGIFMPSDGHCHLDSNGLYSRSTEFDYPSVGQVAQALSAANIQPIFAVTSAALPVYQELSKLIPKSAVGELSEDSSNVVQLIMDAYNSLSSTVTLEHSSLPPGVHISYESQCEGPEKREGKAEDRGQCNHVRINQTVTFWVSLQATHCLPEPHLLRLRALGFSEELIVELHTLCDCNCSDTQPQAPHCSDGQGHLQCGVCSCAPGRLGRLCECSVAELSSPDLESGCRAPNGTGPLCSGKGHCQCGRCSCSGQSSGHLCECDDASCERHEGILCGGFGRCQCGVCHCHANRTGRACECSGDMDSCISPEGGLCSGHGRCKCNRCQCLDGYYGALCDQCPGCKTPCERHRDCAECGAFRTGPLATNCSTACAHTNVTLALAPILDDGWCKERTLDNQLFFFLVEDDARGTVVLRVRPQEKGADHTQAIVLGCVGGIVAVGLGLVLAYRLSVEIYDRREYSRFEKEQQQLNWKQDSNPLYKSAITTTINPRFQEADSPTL

SMILES	IC50 [1, 3] [nM]	IC50 [2, 6] [nM]	further results
O=C(N[C@@H](Cc1cccc2c(-c3cccc4ccncc34)cccc12)C(=O)O)c1c(F)cccc1F [Compound 295]	> 1000	–	–
CN(C)Cc1cccc2c(-c3cccc4c(C[C@H](NC(=O)c5c(F)cc(N6CCOC[C@@H]6C(F)(F)F)cc5CN5CCC(N(C)C)CC5)C(=O)O)cccc34)nccc12 [Compound 434]	–	–	IC50 [2, 4]: > 1000 nM
Cn1c(=O)c(-c2cccc3c(C[C@H](NC(=O)C45CC(NCC(F)(F)F)(C4)C5)C(=O)O)cccc23)c(C(F)(F)F)c2ccccc21 [Compound 446]	> 1000	–	–
Cn1c(=O)c(-c2cccc3c(C[C@H](NC(=O)C4(C(F)(F)F)CCN([C@H]5CCOC5)CC4)C(=O)O)cccc23)c(C(F)(F)F)c2ccccc21 [Compound 458]	–	–	IC50 [2, 4]: 100 to 1000 nM
CO[C@H]1C[C@@H](c2cc(F)c(C(=O)N[C@@H](Cc3cccc4c(-c5c(C(F)(F)F)c6ccccc6n(C)c5=O)cccc34)C(=O)O)c(F)c2)N(C)C1 [Compound 466]	100 to 1000	–	–
CO[C@H]1C[C@H](c2cc(F)c(C(=O)N[C@@H](Cc3cccc4c(-c5c(C(F)(F)F)c6ccccc6n(C)c5=O)cccc34)C(=O)O)c(F)c2)N(C)C1 [Compound 467]	100 to 1000	–	–
Cn1c(=O)c(-c2cccc3c(C[C@H](NC(=O)c4c(F)ccc(C5CC5)c4F)C(=O)O)cccc23)c(C(F)(F)F)c2ccccc21 [Compound 488]	100 to 1000	–	–
CC1CC(C)(C(=O)N[C@@H](Cc2cccc3c(-c4c(C(F)(F)F)c5ccccc5n(C)c4=O)cccc23)C(=O)O)CCN1CC(F)(F)F (stereo partly shown) [Compound 528]	> 1000	–	–
CC(C)CC1CC(C)(C(=O)N[C@@H](Cc2cccc3c(-c4c(C(F)(F)F)c5ccccc5n(C)c4=O)cccc23)C(=O)O)CCN1CC(F)(F)F (stereo partly shown) [Compound 529]	> 1000	–	–
COc1cccc(CN2CCCCC2)c1-c1cccc2c(C[C@H](NC(=O)c3c(F)cccc3C3CC3)C(=O)O)cccc12 [Compound 541]	< 10	–	–
COc1ccc(CN2CC3CCC(C2)O3)c(OC)c1-c1cccc2c(C[C@H](NC(=O)c3c(C)cccc3F)C(=O)O)cccc12 [Compound 568]	10 to 100	–	–
CCCS(=O)(=O)N1CCC(C(=O)N[C@@H](Cc2cccc3c(-c4c(OC)ccc(CN5CCC(F)(F)CC5)c4OC)cccc23)C(=O)O)(C(F)(F)F)CC1 [Compound 617]	100 to 1000	–	–
COc1ccc(CN2CCCC(F)C2)c(OC)c1-c1cccc2c(C[C@H](NC(=O)c3c(C)cc(C45CCOCC4C5)cc3F)C(=O)O)cccc12 (stereo partly shown) [Compound 663]	< 10	–	–
O=C(N[C@@H](Cc1cccc2c(-c3ncc(CN4CCCCC4)c4ccccc34)cccc12)C(=O)O)c1c(F)cccc1F [Compound 678]	10 to 100	–	–
CC1(C)CCN(Cc2cnc(-c3cccc4c(C[C@H](NC(=O)C5(C(F)(F)F)CCN(C6COC6)CC5)C(=O)O)cccc34)c3ccccc23)CC1 [Compound 686]	–	–	IC50 [1, 5]: < 10 nM
Cc1cccc(F)c1C(=O)N[C@@H](Cc1cccc2c(-c3cc(CN4CCCCC4)ccc3C(F)(F)F)cccc12)C(=O)O [Compound 689]	–	–	IC50 [1, 5]: 10 to 100 nM
COc1cccc(CN2CCCCC2)c1-c1cccc2c(C[C@H](NC(=O)c3c(F)cccc3-c3ccccc3)C(=O)O)cccc12 [Compound 693]	–	> 1000	–

SMILES	IC50 [1, 3] [nM]	IC50 [2, 6] [nM]	further results
Cn1c(=O)c(-c2cccc3c(C[C@H](NC(=O)c4c(F)cccc4F)C(=O)O)cccc23)c(C(F)(F)F)c2cc(CCN3CC(F)C3)ccc21 [Compound 715]	–	> 1000	–
COc1cc2c(c(C(F)(F)F)c1-c1cccc3c(C[C@H](NC(=O)C4(C(F)(F)F)CCN(CC(F)(F)F)CC4)C(=O)O)cccc13)CN(C)CC2 [Compound 736]	–	–	IC50 [1, 5]: < 10 nM
O=C(O)[C@H](Cc1cccc2c(-c3c(CN4CCCCC4)ccc4cccnc34)cccc12)NC(=O)C1(C(F)(F)F)CCN(CC(F)(F)F)CC1 [Compound 767]	–	> 1000	–
COc1c(-c2cccc3c(C[C@H](NC(=O)C4(C(F)(F)F)CCN(CC(F)(F)F)CC4)C(=O)O)cccc23)cc(CN2CCCCC2)cc1C(F)(F)F [Compound 769]	–	> 1000	–
O=C(O)[C@H](Cc1cccc2c(-c3cccc4ocnc34)cccc12)NC(=O)C1(C(F)(F)F)CCN(CC(F)(F)F)CC1 [Compound 770]	–	> 1000	–
O=C(O)[C@H](Cc1cccc2c(-c3cccc4ncoc34)cccc12)NC(=O)C1(C(F)(F)F)CCN(CC(F)(F)F)CC1 [Compound 771]	–	> 1000	–
O=C(O)[C@H](Cc1cccc2c(-c3cccc4cnoc34)cccc12)NC(=O)C1(C(F)(F)F)CCN(CC(F)(F)F)CC1 [Compound 772]	–	> 1000	–
COc1cc2ccccc2cc1-c1cccc2c(C[C@H](NC(=O)C3(C(F)(F)F)CCN(CC(F)(F)F)CC3)C(=O)O)cccc12 [Compound 775]	–	> 1000	–
COc1c(-c2cccc3c(C[C@H](NC(=O)C4(C(F)(F)F)CCN(CC(F)(F)F)CC4)C(=O)O)cccc23)ccc2ccccc12 [Compound 776]	–	> 1000	–
COc1ccc(CCN2CCCC(F)C2)c(OC)c1-c1cccc2c(C[C@H](NC(=O)C3(C(F)(F)F)CCN(CC(F)(F)F)CC3)C(=O)O)cccc12 (stereo partly shown) [Compound 826]	–	100 to 1000	–
CN(Cc1cnc(-c2cccc3c(C[C@H](NC(=O)C4(C(F)(F)F)CCN(CC(F)(F)F)CC4)C(=O)O)cccc23)c2ccccc12)CC(F)(F)F [Compound 895]	–	> 1000	–
CN(Cc1cnc(-c2cccc3c(C[C@H](NC(=O)C4(C(F)(F)F)CCN(CC(F)F)CC4)C(=O)O)cccc23)c2ccccc12)CC(F)(F)F [Compound 923]	–	> 1000	–
CC[C@@H]1CCCCN1Cc1cnc(-c2cccc3c(C[C@H](NC(=O)C4(C(F)(F)F)CCN(CC(F)F)CC4)C(=O)O)cccc23)c2ccccc12 [Compound 932]	–	100 to 1000	–
COc1ccc(CN2CCC(C(F)(F)F)CC2)cc1-c1cccc2c(C[C@H](NC(=O)C3(C(F)(F)F)CCN(CC(F)F)CC3)C(=O)O)cccc12 [Compound 939]	–	100 to 1000	–
Cc1cccc(F)c1C(=O)N[C@@H](Cc1cccc2c(-c3ccccc3OCCN3CCCCC3)cccc12)C(=O)O [Compound 1007]	–	> 1000	–
Cc1cccc(F)c1C(=O)N[C@@H](Cc1cccc2c(-c3ncc(CN4CCC(F)(F)CC4)c4ccccc34)cccc12)C(=O)O [Compound 1031]	–	> 1000	–
Cc1cccc(F)c1C(=O)N[C@@H](Cc1cccc2c(-c3c(C(F)(F)F)c4cc(CN5CCC(F)(F)CC5)ccc4n(C)c3=O)cccc12)C(=O)O [Compound 1032]	–	> 1000	–
